Data as given in patent US20130096332A1, “METHOD FOR INCREASING THE CONTENT OF DOCOSAHEXAENOIC ACID IN FAT-CONTAINING MATERIALS OR IN FATS AND OILS” (NIPPON SUISAN KAISHA, LTD., priority 2007, published 2013).

Tests used:
Format in all cases: cell-based
[1] = system: strain mh295, microorganism classified into Labyrinthulae; experiment: DHA percentage of fatty acid composition (gas chromatography) after culture with desaturase inhibitor, strain mh295; conditions: GY medium, 28° C., 4 days, inhibitor added to medium (curcumin 1μg/ml), control 19.19
Method: (§1) Thirty three strains of microorganisms which were isolated from mangrove woods or sea water around Ishigaki City, Okinawa Prefecture and classified into Labyrinthulae, were cultured in a GY medium (prepared according to the method as described in “NIPPON SUISAN GAKKAISHI” vol. 68, no. 5, 674-678 (2002); GY medium containing 3% glucose and 1% yeast extract was prepared with 50% artificial sea water and adjusted to pH 6.0; this was used as a liquid medium or a plate medium with 1.5% agar) at 28° C. for 4 days, to which was added 1μg/ml of curcumin (Nacalai Tesque, Inc.) as an inhibitor for a Δ6-fatty acid desaturase. After termination of the culture, the microorganism was collected by centrifugal separation (1500×g, 10 min), and the cells were destroyed by ultra-sonication and extracted by chloroform/methanol (2:1; by v/v) to yield the total lipid. The resulting total lipid was subjected to methanolysis with 10% hydrogen chloride/methanol solution, and the fatty acid composition was analyzed by gas chromatography (Shimadzu Corp.; Model GC-2014). In a control, the same operation as mentioned above was made with no addition of curcumin. […]

[2] = system: strain mh313, microorganism classified into Labyrinthulae; experiment: DHA percentage of fatty acid composition (gas chromatography) after culture with desaturase inhibitor, strain mh313; conditions: GY medium, 28° C., 4 days, inhibitor added to medium (curcumin 1μg/ml), control 26.03
Method: as §1

[3] = system: strain mh314, microorganism classified into Labyrinthulae; experiment: DHA percentage of fatty acid composition (gas chromatography) after culture with desaturase inhibitor, strain mh314; conditions: GY medium, 28° C., 4 days, inhibitor added to medium (curcumin 1μg/ml), control 13.27
Method: as §1

[4] = system: strain mh375, microorganism classified into Labyrinthulae; experiment: DHA percentage of fatty acid composition (gas chromatography) after culture with desaturase inhibitor, strain mh375; conditions: GY medium, 28° C., 4 days, inhibitor added to medium (curcumin 1μg/ml), control 26.02
Method: as §1

[5] = system: strain mh295, microorganism classified into Labyrinthulae; experiment: Determination of DHA amount with C19:0 internal standard, strain mh295; conditions: from ratio of peak area to C19:0 internal standard, control 0.45
Method: (§2) Thirty three strains of microorganisms which were isolated from mangrove woods or sea water around Ishigaki City, Okinawa Prefecture and classified into Labyrinthulae, were cultured in a GY medium (prepared according to the method as described in “NIPPON SUISAN GAKKAISHI” vol. 68, no. 5, 674-678 (2002); GY medium containing 3% glucose and 1% yeast extract was prepared with 50% artificial sea water and adjusted to pH 6.0; this was used as a liquid medium or a plate medium with 1.5% agar) at 28° C. for 4 days, to which was added 1μg/ml of curcumin (Nacalai Tesque, Inc.) as an inhibitor for a Δ6-fatty acid desaturase. […] The resulting total lipid was subjected to methanolysis with 10% hydrogen chloride/methanol solution, and the fatty acid composition was analyzed by gas chromatography (Shimadzu Corp.; Model GC-2014). […]
(§3) To the total lipid (about 40 mg) which was extracted from the cells cultured in Examples 1 and 2 was added 0.5mg of nonadecanoic acid (C19:0) as an internal standard substance; then, the fatty acid composition after methanolysis with 10% hydrogen chloride/methanol solution was analyzed by gas chromatography (Shimadzu Corp.; Model GC-2014). From the ratio of the peak area of each fatty acid including DHA to that of C19:0, the amount of each fatty acid was determined.

[6] = system: strain mh313, microorganism classified into Labyrinthulae; experiment: Determination of DHA amount with C19:0 internal standard, strain mh313; conditions: from ratio of peak area to C19:0 internal standard, control 0.56
Method: as §2, §3

[7] = system: strain mh314, microorganism classified into Labyrinthulae; experiment: Determination of DHA amount with C19:0 internal standard, strain mh314; conditions: from ratio of peak area to C19:0 internal standard, control 0.21
Method: as §2, §3

[8] = system: strain mh375, microorganism classified into Labyrinthulae; experiment: Determination of DHA amount with C19:0 internal standard, strain mh375; conditions: from ratio of peak area to C19:0 internal standard, control 0.39
Method: as §2, §3

[9] = system: microorganism classified into Labyrinthulae; experiment: Content of docosahexaenoic acid in fats and oils produced versus control (summary statements); conditions: culture with inhibitor versus no inhibitor
Method: as §2, §3

COc1cc(/C=C/C(=O)CC(=O)/C=C/c2ccc(O)c(OC)c2)ccc1O [Example 1, curcumin]
percentage of the peak area of docosahexaenoic acid [1]: 22.32% | percentage of the peak area of docosahexaenoic acid [2]: 31.05% | percentage of the peak area of docosahexaenoic acid [3]: 27.23% | percentage of the peak area of docosahexaenoic acid [4]: 33.77% | amount of DHA [5]: 0.67 g/L | amount of DHA [6]: 0.71 g/L | amount of DHA [7]: 0.66 g/L | amount of DHA [8]: 1 g/L | content of docosahexaenoic acid in the fats and oils produced, in comparison with that of the control [9]: significantly increased

c1cc2c(cc1[C@H]1OC[C@H]3[C@@H]1CO[C@@H]3c1ccc3c(c1)OCO3)OCO2 [Example 2, sesamin]
percentage of the peak area of docosahexaenoic acid [1]: 21.47% | percentage of the peak area of docosahexaenoic acid [2]: 42.32% | percentage of the peak area of docosahexaenoic acid [3]: 22.31% | percentage of the peak area of docosahexaenoic acid [4]: 29.96% | amount of DHA [5]: 0.98 g/L | amount of DHA [6]: 1.45 g/L | amount of DHA [7]: 0.82 g/L | amount of DHA [8]: 0.64 g/L | content of docosahexaenoic acid in the fats and oils produced, in comparison with that of the control [9]: significantly increased
